Source: patent publication EP0933350A1, “Tricyclic retinoids, methods for their production and use” (LIGAND PHARMACEUTICALS INCORPORATED, priority 1994, dated 1996)

Legend:
[1] = target: T1, RXRα (Homo sapiens, UniProt P19793); assay: co-transfection assay (RAR/RXR agonist activity, luciferase reporter in CV-1 cells); assay type: cell-based; settings: read-out: RXRα Pot
T1 sequence (P19793 1-462): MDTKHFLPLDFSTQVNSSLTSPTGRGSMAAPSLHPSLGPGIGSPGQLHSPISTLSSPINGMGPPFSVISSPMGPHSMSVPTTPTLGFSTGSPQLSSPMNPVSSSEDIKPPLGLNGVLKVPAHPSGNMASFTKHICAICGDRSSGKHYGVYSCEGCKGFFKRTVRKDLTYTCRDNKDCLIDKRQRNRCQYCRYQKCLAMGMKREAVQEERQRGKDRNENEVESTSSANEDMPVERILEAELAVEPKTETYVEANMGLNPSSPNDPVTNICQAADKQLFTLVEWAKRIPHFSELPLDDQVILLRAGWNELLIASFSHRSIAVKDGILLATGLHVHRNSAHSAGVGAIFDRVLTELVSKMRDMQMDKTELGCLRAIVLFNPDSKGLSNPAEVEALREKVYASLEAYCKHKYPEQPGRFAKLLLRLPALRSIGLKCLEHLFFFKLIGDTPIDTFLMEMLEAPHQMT

[2] = target: T2, RXRβ (Mus musculus, UniProt P28704); assay: as above; assay type: cell-based; settings: read-out: RXRβ Pot
T2 sequence (P28704 1-520): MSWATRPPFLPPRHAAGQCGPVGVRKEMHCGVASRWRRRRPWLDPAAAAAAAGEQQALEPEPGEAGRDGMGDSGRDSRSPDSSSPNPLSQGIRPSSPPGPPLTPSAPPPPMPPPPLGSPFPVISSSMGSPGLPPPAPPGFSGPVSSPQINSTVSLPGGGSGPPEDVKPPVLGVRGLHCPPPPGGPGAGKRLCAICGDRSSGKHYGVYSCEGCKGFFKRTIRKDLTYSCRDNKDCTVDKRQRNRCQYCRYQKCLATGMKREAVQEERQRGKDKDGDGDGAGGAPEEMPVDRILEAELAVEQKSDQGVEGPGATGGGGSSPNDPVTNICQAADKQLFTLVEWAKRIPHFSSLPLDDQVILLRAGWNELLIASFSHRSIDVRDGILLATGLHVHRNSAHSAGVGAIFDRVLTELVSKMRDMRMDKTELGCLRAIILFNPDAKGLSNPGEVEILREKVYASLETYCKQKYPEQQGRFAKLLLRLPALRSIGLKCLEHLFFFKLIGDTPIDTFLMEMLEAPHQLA

[3] = target: T3, RARα (Homo sapiens, UniProt P10276); assay: competitive binding of tritiated retinoids to retinoid receptors; settings: competition with tritiated retinoid, Cheng-Prussof equation
T3 sequence (P10276 1-462): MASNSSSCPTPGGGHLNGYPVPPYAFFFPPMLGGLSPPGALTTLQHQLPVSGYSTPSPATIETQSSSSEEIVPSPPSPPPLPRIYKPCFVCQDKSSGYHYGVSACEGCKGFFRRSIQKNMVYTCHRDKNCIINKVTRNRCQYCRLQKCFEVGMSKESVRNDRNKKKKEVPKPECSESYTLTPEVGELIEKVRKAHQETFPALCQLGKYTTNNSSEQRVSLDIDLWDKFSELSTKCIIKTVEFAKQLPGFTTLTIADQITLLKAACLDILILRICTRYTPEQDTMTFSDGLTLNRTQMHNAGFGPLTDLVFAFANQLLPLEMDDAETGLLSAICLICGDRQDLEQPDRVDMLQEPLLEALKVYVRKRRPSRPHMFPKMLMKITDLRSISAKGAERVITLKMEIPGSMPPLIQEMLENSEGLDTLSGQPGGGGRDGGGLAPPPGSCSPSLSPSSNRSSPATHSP

[4] = target: T4, RARβ (Homo sapiens, UniProt P10826); assay: as above; settings: competition with tritiated retinoid, Cheng-Prussof equation
T4 sequence (P10826 1-455): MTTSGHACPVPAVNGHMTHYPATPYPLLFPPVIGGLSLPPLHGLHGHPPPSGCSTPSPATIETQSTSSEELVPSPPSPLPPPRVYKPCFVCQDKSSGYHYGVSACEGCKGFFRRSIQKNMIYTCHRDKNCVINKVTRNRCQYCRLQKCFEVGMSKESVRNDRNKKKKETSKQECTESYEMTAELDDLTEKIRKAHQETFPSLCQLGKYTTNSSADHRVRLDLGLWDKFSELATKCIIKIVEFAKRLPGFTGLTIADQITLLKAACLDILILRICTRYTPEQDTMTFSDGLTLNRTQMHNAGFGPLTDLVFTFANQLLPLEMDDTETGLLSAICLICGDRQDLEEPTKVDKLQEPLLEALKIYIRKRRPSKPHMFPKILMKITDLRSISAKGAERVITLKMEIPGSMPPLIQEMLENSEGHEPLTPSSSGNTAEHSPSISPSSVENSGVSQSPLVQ

[5] = target: T1, RXRα; assay: as above; settings: competition with tritiated retinoid, Cheng-Prussof equation
[6] = target: T5, RXRγ (Mus musculus, UniProt P28705); assay: as above; settings: competition with tritiated retinoid, Cheng-Prussof equation
T5 sequence (P28705 1-463): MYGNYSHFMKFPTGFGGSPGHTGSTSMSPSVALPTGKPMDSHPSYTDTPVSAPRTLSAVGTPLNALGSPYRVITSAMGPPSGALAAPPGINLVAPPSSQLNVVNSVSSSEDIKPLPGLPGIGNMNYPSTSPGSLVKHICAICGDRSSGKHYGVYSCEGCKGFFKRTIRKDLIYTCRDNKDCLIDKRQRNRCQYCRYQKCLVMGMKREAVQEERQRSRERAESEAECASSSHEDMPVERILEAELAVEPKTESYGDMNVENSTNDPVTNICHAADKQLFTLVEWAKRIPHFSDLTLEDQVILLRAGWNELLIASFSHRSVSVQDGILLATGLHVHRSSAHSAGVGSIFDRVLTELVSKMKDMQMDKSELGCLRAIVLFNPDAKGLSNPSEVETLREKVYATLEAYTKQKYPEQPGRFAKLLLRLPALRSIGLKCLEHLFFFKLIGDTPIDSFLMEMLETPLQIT

[7] = system: ME 180 cell line; assay: viability (tetrazolium dye, mitochondrial function); assay type: cell-based; settings: Homo sapiens, 96 hours, read-out: MTS IC50
[8] = system: AML-193 cell line; assay: incorporation of 3H-thymidine (antiproliferative); settings: Homo sapiens, 96 h, read-out: TdR IC50 (nM)

Compound | EC50 [1] | EC50 [2] | Kd [3] | Kd [4] | Kd [5] | Kd [6] | IC50 [7] | IC50 [8]
CC(/C=C/C=C1\CCCc2cc3c(cc21)C(C)(C)CCC3(C)C)=C\C(=O)O [Compound 109b, (2E,4E)-3-Methyl-6-[(E)-3,4,5,6,7,8-hexahydro-5,5,8,8-tetramethyl-2H-anthracen-1-ylidene]hexa-2,4-dienoic acid] | 2020 nM | 64 nM | 33 nM | 68 nM | 340 nM | 382 nM | 100 nM | 500 nM
CC(/C=C/C=C1\CCOc2cc3c(cc21)C(C)(C)CCC3(C)C)=C\C(=O)O [Compound 119b, (2E,4E)-3-Methyl-6-[(E)-2,3,6,7,8,9-hexahydro-6,6,9,9-tetramethylbenzo[g]chromen-4-ylidene]hexa-2,4-dienoic acid] | 1660 nM | 1140 nM | 24 nM | 50 nM | 246 nM | 398 nM | 2 nM | 0.6 nM
CC(/C=C/CN1CCCCc2cc3c(cc21)C(C)(C)CCC3(C)C)=C\C(=O)O [Compound 138b, (2E,4E)-3-Methyl-6-[7,7,10,10-tetramethyl-2,3,4,5,7,8,9,10-octahydronaphtho[2,3-6]azepinyl)hexa-2,4-dienoic acid] | 422 nM | 204 nM | > 1000 nM | > 1000 nM | 136 nM | 508 nM | – | –

Compounds with a lower EC50 [1], results first:

EC50 [1] | EC50 [2] | Kd [3] | Kd [4] | Kd [5] | Kd [6] | Compound | IC50 [7] | IC50 [8]
35 nM | 55 nM | 225 nM | 299 nM | 34 nM | 48 nM | CC(/C=C/C=C1/CCCc2cc3c(cc21)C(C)(C)CCC3(C)C)=C\C(=O)O [Compound 101b, (2E,4E)-3-Methyl-6-[(Z)-3,4,5,6,7,8-hexahydro-5,5,8,8-tetramethyl-2H-anthracen-1-ylidene]hexa-2,4-dienoic acid] | 75 nM | 37 nM
36 nM | 45 nM | 145 nM | 313 nM | 59 nM | 85 nM | CC(/C=C/C=C1/CCOc2cc3c(cc21)C(C)(C)CCC3(C)C)=C\C(=O)O [Compound 144b] | 10 nM | 0.6 nM
